In patent US11213517B2, “Pharmaceutical combination comprising a T-type calcium channel blocker” (IDORSIA PHARMACEUTICALS LTD, priority 2016, dated 2022):
“And” between values parts separate entries of the source, which are not always exact repeats. Identical values can stand only once. Like-named read-outs stand apart in the source and are kept apart here.

Legend:
[1] = tested on: audiogenic seizure-sensitive juvenile DBA/2J mice; assay: Audiogenic seizure-sensitive juvenile DBA/2J mouse model of generalized tonic-clonic seizures; type: in vivo; design: key: 0 none, 1 wild running, 2 clonus, 3 hind-limb tonic extension; conditions: oral gavage, mean ± SEM
Source text: Audiogenic Seizure-Sensitive Juvenile DBA/2J Mouse Model of Generalized Tonic-Clonic Seizures
The inbred DBA/2J mouse strain carries an increased general susceptibility for acute generalized convulsive seizures induced by either pharmacological, electrical or, as juvenile, auditory stimuli. At the age of 17 to 28 days (juvenile), they show tonic-clonic convulsions when exposed to a loud tone.
Male juvenile DBA/2J mice (22-24 days old, body weight between 6.6 and 14.5 grams) were used. Each mouse was placed individually in the exposure chamber, an hemispheric acrylic glass dome (diameter: 50 cm) within a sound-attenuated box. After 60 seconds of habituation, an auditory stimulus of mixed frequency tone (15-20 kHz at 110 dB) was played from a speaker placed on the top center of the dome.
The sound-attenuated box was equipped with lights and a camera system in order to observe and record the behavioral seizure response classified as following: • stage 0, no response • stage 1, wild running • stage 2, clonus • stage 3, tonic extension of the hind limbs.
(§1) Different combination efficacy experiments are performed. […] Each experiment consists of four treatment groups: • 1. Vehicle (10% Polyethylene glycol400 (PEG400)/90% methylcellulose (0.5% in water; MC0.5%)), 3 h before exposure to the auditory stimulus+vehicle, 1 h before exposure to the auditory stimulus; • 2. COMPOUND 1 (in 10% PEG400/90% MC0.5%), 3 h before exposure to the auditory stimulus+vehicle, 1 h before exposure to the auditory stimulus; • 3. Vehicle, 3 h before exposure to the auditory stimulus+AED (in 10% PEG400/90% MC0.5%), 1 h before exposure to the auditory stimulus; and • 4. COMPOUND 1 (in 10% PEG400/90% MC0.5%), 3 h before exposure to the auditory stimulus+AED (in 10% PEG400/90% MC0.5%), 1 h before exposure to the auditory stimulus.

[2] = Plasma and brain concentrations of drugs at the end of the audiogenic seizure experiment (LC-MS); type: in vivo, mouse; conditions: for concentration at 1 h: DBA/2J, mouse, oral; for concentration at 1 h / Brain concentration total: analyte VPA, oral gavage, mean ± SEM
Procedure: Briefly, blood was sampled from the vena cava caudalis with a syringe pre-filled with EDTA (ethylenediamine tetraacetic acid) as anticoagulant and centrifuged to yield plasma (for 10 minutes, at 4° C. and 5000 rpm (rounds per minute)). Brain was sampled and homogenized into one volume of cold phosphate buffer (pH 7.4). Following extraction with methanol, concentrations of the compound in plasma and brain were determined using liquid chromatography coupled to mass spectrometry.
as §1

[3] = vehicle 3 h + VPA 100 mg/kg 1 h before stimulus

**Q.** For `CCCC(CCC)C(=O)O` [VPA, 2-propylpentanoic acid], which “Seizure stage (maximal seizure stage observed during exposure to auditory stimulus)” value (from here on “Seizure stage”) ([1]; vehicle 3 h + VPA 30 mg/kg 1 h before stimulus) is on record?
**A.** The value was 2.9 ± 0.1.

**Q.** What about the “Seizure stage” value [1, 3] of the same molecule?
**A.** Its value is 2.7 ± 0.2 and 2.8 ± 0.2.

**Q.** And the “Seizure stage” value ([1]; vehicle 3 h + VPA 100 mg/kg 1 h before stimulus, listed as valproic acid)?
**A.** Its value is 3.

**Q.** What about the “plasma and brain concentrations after administration of the compounds alone or in combination” value ([2]; COMPOUND 1 and valproic acid, juvenile DBA/2J mice) of the same molecule?
**A.** Its value is “similar”.

**Q.** What about the concentration at 1 h ([2]; brain, 30 mg/kg, vehicle 3 h + VPA 30 mg/kg 1 h before stimulus, read-out: Brain concentration total) of the same molecule?
**A.** The concentration at 1 h was 1260 ± 399 ng/g.

**Q.** What about the concentration at 1 h ([2]; brain, 100 mg/kg, vehicle 3 h + VPA 100 mg/kg 1 h before stimulus, read-out: Brain concentration total) of the same molecule?
**A.** The concentration at 1 h was 10100 ± 2040 ng/g.

**Q.** And the concentration at 1 h ([2]; brain, 200 mg/kg, vehicle 3 h + VPA 200 mg/kg 1 h before stimulus, read-out: Brain concentration total)?
**A.** The concentration at 1 h was 44200 ± 4090 ng/g.

**Q.** What about the concentration at 1 h ([2]; brain, COMPOUND 1 10 mg/kg 3 h + VPA 100 mg/kg 1 h before stimulus, read-out: Brain concentration total) of the same molecule?
**A.** The concentration at 1 h was 14600 ± 2910 ng/g.

**Q.** And the concentration at 1 h ([2]; brain, COMPOUND 1 10 mg/kg 3 h + VPA 200 mg/kg 1 h before stimulus, read-out: Brain concentration total)?
**A.** The concentration at 1 h was 34700 ± 4440 ng/g.

**Q.** What about the concentration at 1 h ([2]; brain, COMPOUND 1 30 mg/kg 3 h + VPA 30 mg/kg 1 h before stimulus, read-out: Brain concentration total) of the same molecule?
**A.** Its concentration at 1 h is 1010 ± 117 ng/g.

**Q.** And the concentration at 1 h ([2]; brain, COMPOUND 1 30 mg/kg 3 h + VPA 100 mg/kg 1 h before stimulus, read-out: Brain concentration total)?
**A.** Its concentration at 1 h is 5950 ± 946 ng/g.

**Q.** What about the concentration at 1 h ([2]; brain, COMPOUND 1 30 mg/kg 3 h + VPA 200 mg/kg 1 h before stimulus, read-out: Brain concentration total) of the same molecule?
**A.** The concentration at 1 h was 27000 ± 6540 ng/g.

**Q.** What about the concentration at 1 h ([2]; plasma, 30 mg/kg, vehicle 3 h + VPA 30 mg/kg 1 h before stimulus, read-out: Plasma concentration total) of the same molecule?
**A.** The concentration at 1 h was 23 ± 3.61 µg/mL.

**Q.** What about the concentration at 1 h ([2]; plasma, 100 mg/kg, vehicle 3 h + VPA 100 mg/kg 1 h before stimulus, read-out: Plasma concentration total) of the same molecule?
**A.** The concentration at 1 h was 53.7 ± 4.04 µg/mL.

**Q.** And the concentration at 1 h ([2]; plasma, 200 mg/kg, vehicle 3 h + VPA 200 mg/kg 1 h before stimulus, read-out: Plasma concentration total)?
**A.** Its concentration at 1 h is 133 ± 10.7 µg/mL.

**Q.** And the concentration at 1 h ([2]; plasma, COMPOUND 1 10 mg/kg 3 h + VPA 100 mg/kg 1 h before stimulus, read-out: Plasma concentration total)?
**A.** The concentration at 1 h was 57.3 ± 3.76 µg/mL.

**Q.** What about the concentration at 1 h ([2]; plasma, COMPOUND 1 10 mg/kg 3 h + VPA 200 mg/kg 1 h before stimulus, read-out: Plasma concentration total) of the same molecule?
**A.** Its concentration at 1 h is 123 ± 11.7 µg/mL.

**Q.** What about the concentration at 1 h ([2]; plasma, COMPOUND 1 30 mg/kg 3 h + VPA 30 mg/kg 1 h before stimulus, read-out: Plasma concentration total) of the same molecule?
**A.** The concentration at 1 h was 19.9 ± 1.65 µg/mL.

**Q.** What about the concentration at 1 h ([2]; plasma, COMPOUND 1 30 mg/kg 3 h + VPA 100 mg/kg 1 h before stimulus, read-out: Plasma concentration total) of the same molecule?
**A.** The concentration at 1 h was 63.4 ± 3.21 µg/mL.

**Q.** And the concentration at 1 h ([2]; plasma, COMPOUND 1 30 mg/kg 3 h + VPA 200 mg/kg 1 h before stimulus, read-out: Plasma concentration total)?
**A.** The concentration at 1 h was 110 ± 11.4 µg/mL.

**Q.** And the Brain concentration total [2, 3]?
**A.** Its Brain concentration total is 9278 ± 2535 ng/g.

**Q.** What about the Brain concentration total ([2]; vehicle 3 h + VPA 200 mg/kg 1 h before stimulus) of the same molecule?
**A.** Its Brain concentration total is 24746 ± 3564 ng/g.
